Test results taken from PubChem BioAssay (NCI).
“And” between values parts separate entries of the source, which are not always exact repeats. Equal values may be shown once.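 Results reflect a 48-hour exposure of cells in 96-well plates to compound at five concentrations. GI50 marks 50% less growth. At the TGI there is no net growth.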

Columns and labels:
Assay in all cases: inhibition of tumour cell growth, NCI panel, 48 h
OVCAR-4 ovarian = tested on: OVCAR-4 ovarian
PC-3 prostate = tested on: PC-3 prostate
LOX IMVI melanoma = tested on: LOX IMVI melanoma
T-47D breast = tested on: T-47D breast
BT-549 breast = tested on: BT-549 breast
SK-MEL-2 melanoma = tested on: SK-MEL-2 melanoma
COLO 205 colon = tested on: COLO 205 colon
NCI-H226 lung = tested on: NCI-H226 lung
SF-268 CNS = tested on: SF-268 CNS
NCI-H522 lung = tested on: NCI-H522 lung

Row | Structure (SMILES) | TGI (OVCAR-4 ovarian) | TGI (PC-3 prostate) | TGI (LOX IMVI melanoma) | TGI (T-47D breast) | TGI (BT-549 breast) | TGI (SK-MEL-2 melanoma) | TGI (COLO 205 colon) | TGI (NCI-H226 lung) | TGI (SF-268 CNS) | TGI (NCI-H522 lung) | GI50 (OVCAR-4 ovarian) | GI50 (SF-268 CNS) | GI50 (PC-3 prostate) | GI50 (NCI-H522 lung) | GI50 (LOX IMVI melanoma) | GI50 (T-47D breast) | GI50 (BT-549 breast) | GI50 (COLO 205 colon) | GI50 (NCI-H226 lung) | GI50 (SK-MEL-2 melanoma)
1 | CC1(C)C(CC(=O)O)CCCC1CC(=O)O (stereo unspecified) | > 100 µM | > 100 µM | > 100 µM | > 100 µM | > 100 µM | > 100 µM | > 100 µM | > 100 µM |  |  |  |  |  |  |  |  |  |  |  | 
2 | CCOC(=O)C(=O)C(C#N)c1ccc(Cl)cc1 (stereo unspecified) | > 100 µM |  | > 100 µM |  |  | > 100 µM | > 100 µM | > 100 µM | > 100 µM | > 100 µM |  |  |  |  |  |  |  |  |  | 
3 | O=C(Cc1nc2ccccc2o1)C(=O)Nc1ccc(Cl)cc1Cl | > 100 µM |  |  |  |  | > 100 µM | > 100 µM | > 100 µM | > 100 µM |  |  |  |  |  |  |  |  |  |  | 
4 | COC(=O)C1=CC(=O)[C@@H]2CCCC[C@H]12 | > 100 µM |  |  |  |  | > 100 µM | > 100 µM | > 100 µM | > 100 µM | > 100 µM |  |  |  |  |  |  |  |  |  | 
5 | Cc1c(C(=O)c2ccccc2)[n+](=O)c2cc(F)c(F)cc2n1[O-] | > 100 µM | 14.1 µM | 3.01 µM | 20.1 µM | 4.39 µM |  | 11.5 µM | 4.34 µM | 4.12 µM | 3.88 µM | 3110 nM | 1930 nM | 3.37 µM | 1930 nM | 1610 nM | 3700 nM | 2040 nM | 3310 nM | 2.67 µM | 
6 | N#CCCN(c1ccc(C=O)cc1)S(=O)(=O)c1ccccc1 | > 100 µM |  | > 100 µM |  |  | > 100 µM |  | > 100 µM | > 100 µM | > 100 µM |  |  |  |  |  |  |  |  |  | 
7 | N#Cc1cccc(C2C(=O)c3ccc(C(=O)c4ccc5c(c4)C(=O)N(c4ccc(Oc6ccc(N7C(=O)c8ccc(C(=O)c9ccc%10c(c9)C(=O)N(c9cccc(C#N)c9)C%10=O)cc8C7=O)cc6)cc4)C5=O)cc3C2=O)c1 (stereo unspecified) | > 100 µM |  |  |  |  | > 100 µM | > 100 µM |  | > 100 µM | > 100 µM |  |  |  |  |  |  |  |  |  | 
8 | CN(C)c1ccc(/C=c2/c3cc(O)ccc3n3c2cc(-c2ccccc2)[n+]3C)cc1 | > 100 µM | 2.25 µM | 2.47 µM |  |  | 2.55 µM |  | > 100 µM | 1.55 µM | 1.75 µM | 2830 nM |  |  |  |  |  |  |  |  | 
9 | CCc1ncc(CO)n1Cc1cccc2ccccc12 | > 100 µM | > 100 µM |  | > 100 µM | > 100 µM | > 100 µM | > 100 µM | > 100 µM | > 100 µM | > 100 µM |  |  |  |  |  |  |  |  |  | 
10 | O=C1c2ccc3c4c(ccc(c24)C(=O)N1CCNCc1ccccc1)C(=O)N(CCNCc1ccccc1)C3=O | 2.71 µM |  | 3.16 µM | 3.57 µM | 6.19 µM | 5.81 µM | 3.01 µM |  | 14.7 µM |  | 1410 nM | 2760 nM |  |  | 1670 nM | 1640 nM | 2450 nM | 1650 nM |  | 2230 nM
11 | Clc1ccccc1C1SCc2nc3ccccc3n21 (stereo unspecified) | > 100 µM |  | 81.8 µM |  |  | 57.1 µM | > 100 µM | 70.6 µM | > 100 µM | 49.5 µM |  |  |  |  |  |  |  |  |  | 
12 | COC(=O)c1c2c(c(C)[n+]([O-])c1C)C(=O)C(NCc1ccc(O)cc1)=CC2=O | 2.23 µM | 6.55 µM | 2.24 µM |  | 2.91 µM | 3.72 µM | 2.19 µM | 4.36 µM | 3.53 µM | 3.49 µM | 1030 nM | 1640 nM | 2 µM | 1430 nM | 938 nM |  | 1430 nM | 579 nM | 2.06 µM | 1790 nM
13 | CC[As](CC)SCC1OC(OC(C)=O)C(OC(C)=O)C(OC(C)=O)C1OC(C)=O (stereo unspecified) | 37 µM |  | 33.6 µM |  |  | 26.2 µM | 10 µM | 28.9 µM | 25.8 µM | 3.2 µM |  |  |  |  |  |  |  |  |  | 
14 | CN(C)C1CN(C(=O)c2cc(-c3ccc4ncnc(N5CCc6cc(F)c(Cl)cc65)c4c3)cnc2N)C1 |  | > 23 µM | > 100 µM | 5.52 µM | 4.02 µM | 3.77 µM | > 100 µM | > 100 µM | > 100 µM | > 100 µM |  | 652 nM | 0.398 µM | 1770 nM | 458 nM | 299 nM | 436 nM | 1970 nM | 0.986 µM | 1090 nM
15 | COC1C(=O)CCC2(CO2)C1(O)C1(C)OC1CC=C(C)C (stereo unspecified) | > 100 µM | > 100 µM |  | > 100 µM | > 100 µM | > 100 µM | > 100 µM |  | > 100 µM |  |  |  |  |  |  |  |  |  |  | 
16 | CC1C(O)=C(O)c2ccccc2N1O (stereo unspecified) | > 100 µM |  | > 100 µM |  |  | > 100 µM | > 100 µM | > 100 µM | > 100 µM | > 100 µM |  |  |  |  |  |  |  |  |  | 
17 | Cc1ccccc1-n1c(CCl)nc2ccc(Br)cc2c1=O | 31.8 µM |  | 1.46 µM |  |  | 32.5 µM | 26.4 µM | 28.4 µM | 10.8 µM | 5.83 µM |  |  |  |  |  |  |  |  |  | 
18 | O=C(O)CCC1c2[nH]c3ccccc3c2CCN1Cc1ccccc1 (stereo unspecified) | > 100 µM |  | > 100 µM |  |  | > 100 µM | > 100 µM | > 100 µM | > 100 µM | > 100 µM |  |  |  |  |  |  |  |  |  | 
19 | O=C(CC(=O)c1cccc([N+](=O)[O-])c1)C(=O)Nc1ccccc1 | > 100 µM |  | > 100 µM |  |  | > 100 µM |  | > 100 µM | > 100 µM | > 100 µM |  |  |  |  |  |  |  |  |  | 
20 | CN1CCN(CCC=C2c3ccccc3Sc3ccc(S(=O)(=O)N(C)C)cc32)CC1 | > 100 µM and 58.9 µM | 32.5 µM and > 43.1 µM | 3.7 µM and 8.66 µM | 3.42 µM and 16.7 µM | 23 µM and 29.2 µM | 4.32 µM and 6.09 µM | 2.82 µM and 3.7 µM | 26.9 µM and 33.7 µM |  | 3.83 µM and 28.1 µM | 9500 nM and 12800 nM |  | 3.7 µM and 7.99 µM | 1870 nM and 8150 nM | 1700 nM and 2790 nM | 1520 nM and 3850 nM | 8060 nM and 13000 nM | 1440 nM and 1660 nM | 7.04 µM and 15.9 µM | 2370 nM and 2480 nM
21 | Cc1cc(Cl)cc2c1NC(=O)C2(O)C(C(=O)c1ccccc1)c1ccccc1 (stereo unspecified) | > 100 µM and 40 µM |  | > 100 µM and 46.1 µM |  |  | > 100 µM | > 100 µM and 30 µM | > 100 µM and 58.3 µM | > 100 µM and 95.3 µM | > 100 µM |  | 84300 nM and 34800 nM |  |  |  |  |  | > 100000 nM and 15200 nM |  | 
22 | CCCCCCCCCC[C@H](O)[C@H]1CC[C@@H]([C@@H](O)CC[C@H](O)[C@@H]2CCC(CCCCCCC[C@@H](O)CC3=C[C@H](C)OC3=O)O2)O1 (stereo partly specified) | 19.6 µM | 3.44 µM and 17.2 µM | 2.18 µM and 10 µM | 17.6 µM |  | 2.94 µM and 24.6 µM | 4.38 µM and 6 µM | 6.43 µM and 36 µM |  | 18 µM |  | 8170 nM | 4.66 µM |  | 76.4 nM | 1870 nM |  |  | 8.54 µM | 8820 nM
